Measurements taken from US9682967B2.

Target: hSortilin (Homo sapiens (Human), UniProt Q99523)
Experiment: hSortilin affinity assay (displacement of 3H-neurotensin, SPA)
Format: binding
Settings: for IC50: [3H]-Neurotensin 5 nM, 150 nM 6his-Sortilin, read-out: hSortilin NTS Binding IC50; for Ki: from IC50 by Cheng-Prusoff, Kd neurotensin 100 nM

Chain of hSortilin (Q99523 34-755): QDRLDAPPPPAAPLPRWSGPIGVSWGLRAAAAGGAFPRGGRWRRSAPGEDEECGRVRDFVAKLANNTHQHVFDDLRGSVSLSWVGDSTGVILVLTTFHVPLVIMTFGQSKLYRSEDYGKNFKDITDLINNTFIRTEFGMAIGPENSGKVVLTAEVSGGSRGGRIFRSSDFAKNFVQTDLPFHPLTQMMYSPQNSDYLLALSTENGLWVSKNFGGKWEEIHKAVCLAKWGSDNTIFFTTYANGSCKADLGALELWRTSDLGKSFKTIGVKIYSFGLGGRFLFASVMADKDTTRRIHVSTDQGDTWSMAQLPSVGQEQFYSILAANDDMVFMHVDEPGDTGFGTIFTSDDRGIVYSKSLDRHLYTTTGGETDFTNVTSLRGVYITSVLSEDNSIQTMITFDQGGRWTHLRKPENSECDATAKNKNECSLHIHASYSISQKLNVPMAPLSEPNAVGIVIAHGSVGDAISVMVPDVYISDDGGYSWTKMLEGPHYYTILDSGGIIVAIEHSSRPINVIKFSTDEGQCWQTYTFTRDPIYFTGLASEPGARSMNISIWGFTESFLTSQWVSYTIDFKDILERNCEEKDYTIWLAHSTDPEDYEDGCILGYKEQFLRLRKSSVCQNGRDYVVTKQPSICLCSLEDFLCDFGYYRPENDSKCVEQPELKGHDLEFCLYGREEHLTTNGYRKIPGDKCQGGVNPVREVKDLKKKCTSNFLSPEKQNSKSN

Row | IC50 [nM] | Ki [nM] | SMILES
1 | 1200 | 1140 | Cc1cccc(NC(=O)c2ccc(Br)cc2C(=O)O)n1 [Example 2, 5-Bromo-N-(6-methyl-pyridin-2-yl)-phthalamic acid]
2 | 6400 | 6100 | Cc1ccc(C(=O)Nc2cccc(C)n2)c(C(=O)O)c1 [Example 3, 5-Methyl-N-(6-methyl-pyridin-2-yl)-phthalamic acid]
3 | 1400 | 1330 | Cc1cccc(NC(=O)c2ccc(Cl)cc2C(=O)O)n1 [Example 4, 5-Chloro-N-(6-methyl-pyridin-2-yl)-phthalamic acid]
4 | 170 | 162 | Cc1ccc(NC(=O)c2ccc(C(F)(F)F)cc2C(=O)O)nc1C [Example 7, N-(5,6-Dimethyl-pyridin-2-yl)-5-trifluoromethyl-phthalamic acid]
5 | 1000 | 952 | Cc1ccnc(NC(=O)c2ccc(C(F)(F)F)cc2C(=O)O)c1 [Example 8, N-(4-methyl-pyridin-2-yl)-5-trifluoromethyl-phthalamic acid]
6 | 700 | 667 | Cc1cc(NC(=O)c2ccc(C(F)(F)F)cc2C(=O)O)ccn1 [Example 9, N-(2-methyl-pyridin-4-yl)-5-trifluoromethyl-phthalamic acid]
7 | 1800 | 1710 | Cc1cc(NC(=O)c2cc(Cl)c(Cl)cc2C(=O)O)ccn1 [Example 12, 4,5-Dichloro-N-(2-methyl-pyridin-4-yl)-phthalamic acid]
8 | 360 | 343 | O=C(O)c1cc(C(F)(F)F)ccc1C(=O)Nc1ncc(C(F)(F)F)cc1Cl [Example 16, 2-((3-chloro-5-(trifluoromethyl)pyridin-2-yl)carbamoyl)-5-(trifluoromethyl)benzoic acid]
9 | 360 | 343 | Cc1ccnc(NC(=O)c2ccc(C(F)(F)F)cc2C(=O)O)n1 [Example 17, 2-((4-methylpyrimidin-2-yl)carbamoyl)-5-(trifluoromethyl)benzoic acid]
10 | 240 | 229 | Cc1ncc(NC(=O)c2ccc(C(F)(F)F)cc2C(=O)O)nc1C [Example 18, 2-((5,6-dimethylpyrazin-2-yl)carbamoyl)-5-(trifluoromethyl)benzoic acid]
11 | 1700 | 1620 | Cc1ccc(NC(=O)c2ccc(Br)cc2C(=O)O)nc1 [Example 19, 5-Bromo-N-(5-methyl-pyridin-2-yl)-phthalamic acid]
12 | 2400 | 2290 | Cc1ccnc(NC(=O)c2ccc(Br)cc2C(=O)O)c1 [Example 24, 5-Bromo-N-(4-methyl-pyridin-2-yl)-phthalamic acid]
13 | 1800 | 1710 | Cc1cc(NC(=O)c2ccc(Br)cc2C(=O)O)ccn1 [Example 25, 5-Bromo-N-(2-methyl-pyridin-4-yl)-phthalamic acid]
14 | 490 | 467 | Cc1nccc(NC(=O)c2ccc(Br)cc2C(=O)O)n1 [Example 34, 5-Bromo-N-(2-methyl-pyrimidin-4-yl)-phthalamic acid]
15 | 2000 | 1900 | Cc1cc(NC(=O)c2ccc(Br)cc2C(=O)O)ncn1 [Example 35, 5-Bromo-N-(6-methyl-pyrimidin-4-yl)-phthalamic acid]
16 | 750 | 714 | COc1cc(NC(=O)c2ccc(C(F)(F)F)cc2C(=O)O)ccn1 [Example 36, N-(2-Methoxy-pyridin-4-yl)-5-trifluoromethyl-phthalamic acid]
17 | 1300 | 1240 | COc1cccc(NC(=O)c2ccc(C(F)(F)F)cc2C(=O)O)n1 [Example 37, N-(6-Methoxy-pyridin-2-yl)-5-trifluoromethyl-phthalamic acid]
18 | 1600 | 1520 | O=C(O)c1cc(C(F)(F)F)ccc1C(=O)NCc1ccccn1 [Example 38, N-Pyridin-2-ylmethyl-5-trifluoromethyl-phthalamic acid]
19 | 7500 | 7140 | O=C(O)c1cc(C(F)(F)F)ccc1C(=O)NCc1ccncc1 [Example 39, N-Pyridin-4-ylmethyl-5-trifluoromethyl-phthalamic acid]
20 | 4800 | 4570 | O=C(O)c1cc(C(F)(F)F)ccc1C(=O)NCc1cccnc1 [Example 40, N-Pyridin-3-ylmethyl-5-trifluoromethyl-phthalamic acid]
21 | 300 | 286 | Cc1nccc(NC(=O)c2ccc(C(F)(F)F)cc2C(=O)O)n1 [Example 44, 2-((2-methylpyrimidin-4-yl)carbamoyl)-5-(trifluoromethyl)benzoic acid]
22 | 200 | 190 | Cc1cnc(NC(=O)c2ccc(C(F)(F)F)cc2C(=O)O)nc1C [Example 45, 2-((4,5-dimethylpyrimidin-2-yl)carbamoyl)-5-(trifluoromethyl)benzoic acid]
23 | 88 | 84 | O=C(O)c1cc(C(F)(F)F)ccc1C(=O)Nc1ccc2c(n1)CCCC2 [Example 46, 2-((5,6,7,8-tetrahydroquinolin-2-yl)carbamoyl)-5-(trifluoromethyl)benzoic acid]
24 | 1200 | 1140 | Cc1cccc(NC(=O)c2cc(C(F)(F)F)c(C(F)(F)F)cc2C(=O)O)n1 [Example 47, 2-((6-methylpyridin-2-yl)carbamoyl)-4,5-bis(trifluoromethyl)benzoic acid]
25 | 620 | 599 | Cc1nccc(NC(=O)c2cc(C(F)(F)F)c(C(F)(F)F)cc2C(=O)O)n1 [Example 50, 2-((2-methylpyrimidin-4-yl)carbamoyl)-4,5-bis(trifluoromethyl)benzoic acid]

The remaining lines, values behind:

Row | SMILES | IC50 [nM] | Ki [nM]
26 | Cc1cccc(NC(=O)c2cc(Cl)c(Cl)cc2C(=O)O)n1 [Example 5, 4,5-Dichloro-N-(6-methyl-pyridin-2-yl)-phthalamic acid] | 830 | 790
27 | N#Cc1c(NC(=O)c2ccc(Br)cc2C(=O)O)sc2c1CCCC2 [Example 6] | 4000 | 
28 | Cc1ccnc(NC(=O)c2cc(Cl)c(Cl)cc2C(=O)O)c1 [Example 10, 4,5-Dichloro-N-(4-methyl-pyridin-2-yl)-phthalamic acid] | 2200 | 2100
29 | Cc1ccc(NC(=O)c2cc(Cl)c(Cl)cc2C(=O)O)nc1C [Example 11, 4,5-Dichloro-N-(5,6-Dimethyl-pyridin-2-yl)-phthalamic acid] | 480 | 457
30 | Cc1nccc(NC(=O)c2cc(Cl)c(Cl)cc2C(=O)O)n1 [Example 13, 4,5-Dichloro-N-(2-methyl-pyrimidin-4-yl)-phthalamic acid] | 480 | 457
31 | Cc1cccc(NC(=O)c2ccc(Cl)c(F)c2C(=O)O)n1 [Example 14, 5-Chloro-6-fluoro-N-(6-methyl-pyridin-2-yl)-phthalamic acid] | 4200 | 4000
32 | Cc1cccc(NC(=O)c2cc(C)c(C)cc2C(=O)O)n1 [Example 15, 4,5-Dimethyl-N-(6-methyl-pyridin-2-yl)-phthalamic acid] | 3400 | 3240
33 | O=C(O)c1cc(Br)ccc1C(=O)Nc1ccc(Cl)cn1 [Example 20, 5-Bromo-N-(5-chloro-pyridin-2-yl)-phthalamic acid] | 990 | 943
34 | O=C(O)c1cc(Br)ccc1C(=O)Nc1ccccn1 [Example 21, 5-Bromo-N-pyridin-2-yl-phthalamic acid] | 3600 | 3430
35 | O=C(O)c1cc(Br)ccc1C(=O)Nc1cccc(Cl)n1 [Example 22, 5-Bromo-N-(6-chloro-pyridin-2-yl)-phthalamic acid] | 1600 | 1520
36 | Cc1ccc(NC(=O)c2ccc(Br)cc2C(=O)O)nc1C [Example 23, 5-Bromo-N-(5,6-dimethyl-pyridin-2-yl)-phthalamic acid] | 570 | 543
37 | O=C(O)c1cc(Br)ccc1C(=O)Nc1cccnc1 [Example 26] | 5500 | 5240
38 | Cc1csc(NC(=O)c2ccc(Br)cc2C(=O)O)n1 [Example 28, 5-Bromo-N-(4-methyl-thiazol-2-yl)-phthalamic acid] | 3600 | 3430
39 | O=C(O)c1cc(Br)ccc1C(=O)Nc1ccc2ccccc2n1 [Example 29, 5-Bromo-N-quinolin-2-yl-phthalamic acid] | 1300 | 1240
40 | O=C(O)c1cc(Br)ccc1C(=O)Nc1ccc(Cl)c(Cl)n1 [Example 30, 5-Bromo-N-(5,6-dichloro-pyridin-2-yl)-phthalamic acid] | 2100 | 2000
41 | Cc1ccc(NC(=O)c2ccc(Br)cc2C(=O)O)nn1 [Example 32, 5-Bromo-N-(6-methyl-pyridazin-3-yl)-phthalamic acid] | 3200 | 3050
42 | Cc1cc(C)nc(NC(=O)c2ccc(Br)cc2C(=O)O)c1 [Example 33, 5-Bromo-N-(4,6-dimethyl-pyridin-2-yl)-phthalamic acid] | 970 | 924
43 | CCCc1ccc(C(=O)Nc2cccc(C)n2)c(C(=O)O)c1 [Example 41, N-(6-Methyl-pyridin-2-yl)-5-propyl-phthalamic acid] | 3600 | 3430
44 | C=C(C)c1ccc(C(=O)Nc2cccc(C)n2)c(C(=O)O)c1 [Example 42, N 5-Isopropenyl-N-(6-methyl-pyridin-2-yl)-phthalamic acid] | 5200 | 4950
45 | Cc1cccc(NC(=O)c2ccc(C(C)C)cc2C(=O)O)n1 [Example 43, N 5-Isopropyl-N-(6-methyl-pyridin-2-yl)-phthalamic acid] | 1100 | 1050
46 | O=C(O)c1cc(C(F)(F)F)c(C(F)(F)F)cc1C(=O)Nc1ccc2c(n1)CCCC2 [Example 48, 2-((5,6,7,8-tetrahydroquinolin-2-yl)carbamoyl)-4,5-bis(trifluoromethyl)benzoic acid] | 760 | 721
47 | Cc1ccc(NC(=O)c2cc(C(F)(F)F)c(C(F)(F)F)cc2C(=O)O)nc1C [Example 49, 2-((5,6-dimethylpyridin-2-yl)carbamoyl)-4,5-bis(trifluoromethyl)benzoic acid] | 750 | 734
